# In patent publication US20260138981A1, “DIHYDROFOLATE REDUCTASE INHIBITORS FOR ANTI-BIOTIC RESISTANT INFECTIONS” (THE TRUSTEES OF PRINCETON UNIVERSITY, priority 2022, published 2026):
# What was measured:
# [1] = Maximum tolerated dose (MTD); format: in vivo, mouse; settings: administered subcutaneously (SC), CD-1 mice
# Protocol: P. aeruginosa thigh infection model and MTD studies: Care and handling of Female 5-6-week-old CD-1 conformed to institutional animal care and use policies as carried out at University of North Texas Health Science Center (Fort Worth, Texas). Rodents were fed either base chow or base diet supplemented with 1.8 g/kg thymidine (Sigma T9250) obtained from Envigo starting two days before infection.
# MTD was determined through administration of compounds at increasing dosage until the maximum dose before adverse reactions were observed. Doses were increased in a stepwise manner from 1 mg/kg to 5, 10, 25, 50 mg/kg. […] MTD was evaluated by the University of North Texas Health Science Center (Fort Worth, Texas).
# [2] = system: P. aeruginosa PA14; experiment: Growth with TMI supplementation; format: cell-based; settings: P. aeruginosa PA14, fluorofolin 2×MIC, 0.3 mM TMI
# Protocol: (§1) FIGS. 3A and 3B characterize the growth of E. coli MG1655 and P. aeruginosa PA14 respectively in 0.3 mM thymine, methionine, and inosine (TMI) supplemented media and treated with fluorofolin at 2×MIC or DMSO. Curves represent optical at 600 nm (OD600) of 2 biological replicates. Mean±SD are shown.
# (§2) Where listed, growth media were prepared according manufacturer recommendations: LB Broth and LB Broth supplemented with 0.3 mM thymine (BD Biosciences 244610, Alfa Aesar A15879), 0.3 mM methionine (Sigma-Aldrich M9625), 0.3 mM inosine (EMD Millipore 4060), Mueller Hinton II Broth (Cation-Adjusted)/(CAMHB) (BD 212322) or 0.3 mM thymidine (Sigma-Aldrich T1895), Gutnick Minimal Media (1.0 g/L K2SO4, 13.5 g/L K2HPO4, 4.7 g/L KH2PO4, 0.1 g/L of MgSO4-7H2O, 10 mM NH4Cl as a nitrogen source, and 0.4% w/v glucose as a carbon source)^62.
# [3] = system: E. coli MG1655; experiment: Growth with TMI supplementation; format: cell-based; settings: E. coli MG1655, fluorofolin 2×MIC, 0.3 mM thymine, methionine, inosine
# Protocol: as §1, §2
# [4] = system: sheep red blood cells
# Protocol: Percent hemolysis was measured using Abs405 compared to 100% lysis control by Triton X-100 (1% v/v). Mean±SD of technical triplicates are shown.
# Samples were treated at 37° C. with shaking for 1 hour and then centrifuged. Supernatants were collected and absorbances were measured at 405 nm in a Tecan InfiniteM200 Pro (Männedorf, CH) microplate reader. Percentage hemolysis was calculated compared to 100% lysis by Triton X-100 (1% v/v) (Sigma-Aldrich X100RS).
# [5] = Pharmacokinetic analysis after single oral dose; format: in vivo, mouse; settings: single dose 200 mg/kg PO, CD-1 mice
# Protocol: FIG. 2A quantifies plasma concentration of fluorofolin over time after single oral administration to neutropenic CD1 mice. Each line is representative of an individual mouse.
# Pharmacokinetics determination: Care and handling of male CD-1 mice approximately 6-8 weeks old conformed to institutional animal care and use policies as carried out at Pharmaron, Inc. (Beijing, ROC).
# Pharmacokinetic properties were determined after a single dose of 200 mg/kg fluorofolin given PO. Plasma samples were taken from three mice at times 0.083, 0.25, 0.5, 1, 2, 4, 8, and 24 hours and quantitative analysis was performed using LC/MS/MS. Half-life was determined from plasma concentration after fluorofolin levels reached pseudo-equilibrium (4 hours for mouse 1 and 2, and 2 hours for mouse 3). Pharmacokinetic values were estimated using a non-compartmental model generated from WinNonlin 6.1. Pharmacokinetic analysis was carried out by Pharmaron, Inc. (Beijing, ROC).
# [6] = system: S. epidermidis, E. cloacae, E. faecalis, K. pneumoniae, and S. aureus; experiment: Growth of other species with TMI supplementation; format: cell-based; settings: fluorofolin 2×MIC, 0.3 mM TMI
# Protocol: as §2
# [7] = system: folate metabolism in P. aeruginosa; experiment: Metabolomics (LC-MS metabolite abundance); format: cell-based; settings: PA14, 2×MIC for 15 min, vs solvent control; P=0.0186 and 0.0196
# Protocol: Metabolite abundance was quantified in comparison to the solvent only control. Data represents mean±SD for 3 biological replicates. P values were calculated using unpaired t-test using Prism 9 (P values≤0.05)
# To test the ability of fluorofolin to inhibit P. aeruginosa DHFR in vivo, metabolomics were performed. As a positive control for DHFR inhibition, we turned to TMP.
# Overnight P. aeruginosa PA14 cultures were diluted 1:150 in Gutnick Minimal Media and grown to early-mid exponential phase (OD600=0.4-0.6).
# LC-MS analysis of metabolites was performed on Orbitrap Exploris 240 mass spectrometer coupled with hydrophilic interaction liquid chromatography (HILIC)^64. […] Flow rate was 0.15 mL/min, and column temperature was set at 25° C. […] The orbitrap resolution was 180,000 at m/z of 200. The maximum injection time was 200 ms, and the automatic gain control (AGC) target was 1000%. Raw mass spectrometry data were converted to mzXML format by MSConvert (ProteoWizard). Pick-peaking was done on El Maven (v0.8.0, Elucidata).
# [8] = system: co-cultures of E. coli MG1655 and P. aeruginosa PA14; experiment: Growth competition assay (co-culture); format: cell-based; settings: 50 μg/mL fluorofolin, 1:1 inoculum, overnight, CFU
# Protocol: FIG. 3C characterizes competition of P. aeruginosa PA14 and E. coli MG1655 in LB or TMI-supplemented LB media. PA14 and E. coli MG1655 were inoculated at a 1:1 ratio and grown overnight in the presence or absence of 50 μg/mL fluorofolin in each media condition. The following day CFU were counted on LB-agar or Pseudomonas selection agar plates to determine CFU/mL of each species. Data represent mean±SD of triplicate biological and triplicate technical replicates. P values were calculated using unpaired t-test using Prism 9 (P value≤0.001)
# Overnight cultures of P. aeruginosa PA14 or E. coli MG1655 were diluted 1:150 into LB Broth in the presence of DMSO or 50 μg/mL fluorofolin with or without TMI supplementation and grown for 16 hours at 37° C. Cultures of each species were grown separately as well as being mixed 1:1. Cultures were plated onto LB Agar or Pseudomonas Selection Agar (Sigma-Aldrich 17208) and CFU counting was carried out as described above. To control for appropriate, Pseudomonas selection, E. coli MG1655 was plated onto Pseudomonas Selection Agar and an absence of colonies was observed. The number of colonies on Pseudomonas Selection Agar plates was reported as the CFU/mL of P. aeruginosa. To calculate CFU/mL of E. coli MG1655, CFU/mL were determined from LB Agar plates, and the CFU/mL of P. aeruginosa were subtracted from these values.
structure (smiles),measurement,setting,value
Nc1nc(N)c2c(ccc3c2ccn3Cc2ccnc(F)c2)n1 [fluorofolin],maximum tolerated dose,[1],25 mg/kg
same,rescue of growth inhibition by TMI supplementation,[2],unable to rescue
same,rescue of growth inhibition by TMI supplementation,[3],could also be rescued
same,permeabilization of red blood cell membranes (hemolysis),[4],did not cause significant permeabilization
same,half-life,[5],12.1 h
same,peak concentration (plasma),[5],4.0 µg/mL
same,rescue of growth inhibition by TMI supplementation,[6],could also be rescued from fluorofolin growth inhibition
same,abundance of AICAR and dUMP,[7],significant upregulation
same,"effect on co-culture, absence of TMI supplementation",[8]; LB,effectively killed both E. coli and P. aeruginosa
same,"effect on co-culture, presence of TMI supplementation",[8]; TMI-supplemented LB,selectively inhibited the growth of P. aeruginosa but not E. coli
